# Data reported in patent US10064909B2, “Compositions and methods for chronic use of a weight-gaining compound” (priority 2015, dated 2018).
# Tests used:
# IGF-1 [1] = test: One-year dog safety study: IGF-1 plasma levels; format: in vivo, Beagle dogs; details: dogs, following treatment, sustained over time to Day 351
# Experimental: This study evaluated the safety of capromorelin in dogs. Thirty-two Beagle dogs were randomly assigned to four groups (n=4/sex/group) and received 0 mg/kg, 0.39 mg/kg, 9.2 mg/kg, or 52.4 mg/kg capromorelin (with the dose calculated per the tartrate salt) once daily by oral gavage for 12 consecutive months. Safety parameters were evaluated including clinical signs, food consumption, bodyweight, clinical pathology, urinalysis, ophthalmology, electrocardiogram and vital signs. Capromorelin, GH and IGF-1 were measured in plasma samples collected at various time points during the study. At the end of the dosing period, dogs were humanely euthanized and necropsied. Selected organs were weighed and tissue samples collected and processed for microscopic examination.
# [2] = Laboratory cats modelling CKD safety pilot study; format: in vivo
# From the text: This study sought to define a capromorelin pharmacokinetic profile in serum of cats with compromised kidney function, to determine if accumulation of capromorelin in serum occurred after 14 days of treatment, and to observe cats for any potential adverse effects of treatment not seen in normal cats. The target population for the capromorelin oral solution included cats with CKD. Therefore, this study used laboratory with significant portions of their kidneys surgically removed and subsequently compromised kidney function indicated by increased serum creatinine and BUN. These cats were developed as a model by Charles River, and are maintained at a colony at their facility in Ballina, Ireland.
# Sixteen cats with compromised kidney function were enrolled in the study and randomized to three groups. Animals assigned to Group 1 (n=6) were administered AT-002 once on Day 0 by intravenous catheter at a dose rate of 0.75 mg/kg per cat. Animals assigned to Group 2 (n=6) were administered the AT-002 daily for 14 days by subcutaneous injection at a dose rate of 2 mg/kg. Subcutaneous and intravenous treatment routes were used to assure that sufficient drug exposure occurred. Animals assigned to Group 3 (n=4) served as untreated controls.
# Blood samples were collected for capromorelin and/or IGF-1 analysis from animals assigned to Group 1 on Study Day 0. Blood samples were also collected from animals assigned to Groups 2 and 3 on Study Days −1 and 13 (prior to dosing) for hematology and clinical chemistry analysis. Appetite was assessed by food intake and weight gain. Bodyweight measurements were performed on Days −7, −1 (all groups) and on Day 13 (Groups 2 and 3 only). Food intake was monitored from Day −7 to Day 13 inclusive for animals assigned to Groups 2 and 3. Animals were observed daily for clinical signs.
# IGF-1 [3] = test: Example 9 field study: IGF-1 serum levels; format: in vivo; details: cats with CKD, 2 mg/kg once daily
# Experimental: A 1-mL blood sample was collected into a vacutainer tube containing no anticoagulant at the screening/qualification/Day 0, Day 30±2, Day 60±3 and Day 90±3 or at the last study visit (i.e. early removal). Blood samples were kept at room temperature and allowed to clot for about 1 hour. Clotted samples were centrifuged for approximately 15 minutes at 3000 RPM.
smiles,measurement,setting,value
"CN1N=C2CCN(C(=O)[C@@H](COCc3ccccc3)NC(=O)C(C)(C)N)C[C@@]2(Cc2ccccc2)C1=O.O=C(O)C(O)C(O)C(=O)O [capromorelin, N-[(2R)-1-[(3aR)-2-methyl-3-oxo-3a-(phenylmethyl)-6,7-dihydro-4H-pyrazolo[4,3-c]pyridin-5-yl]-1-oxo-3-(phenylmethoxy)propan-2-yl]-2-amino-2-methylpropanamide L-tartrate]",IGF-1 plasma levels,IGF-1 [1],increased
same,bodyweight,"[2]; Group 2, 2 mg/kg/day subcutaneous, Day -7 to Day 13",lost bodyweight
same,"appetite stimulation (food intake, bodyweight)","[2]; cats with compromised kidney function, 2 mg/kg subcutaneous daily 14 days",unable to stimulate appetite
same,drug accumulation (pharmacokinetic profiles),"[2]; cats with compromised kidney function, IV 0.75 mg/kg once or SC 2 mg/kg daily 14 days",no evidence of drug accumulation
same,IGF-1 serum levels following administration,IGF-1 [3],increase
